Source: ChEMBL document CHEMBL3774337, “In vivo phase II-enzymes inducers, as potential chemopreventive agents, based on the chalcone and furoxan skeletons” (Bioorg Med Chem, 2016)
Activity calls are given as the source filed them. The calls are words filed in the database; no cut-off is given here.

Tests used:
[1] = organism: Mus musculus; assay: Induction of quinone reductase specific activity in mouse Hepa1c1c7 cells using 2,6-DCIP as substrate at 10 uM measured for 1 min relative to control; format: cell-based
[2] = organism: Mus musculus; assay: Induction of quinone reductase specific activity in mouse mutant BpRc1 cells expressing defective translocator receptor Arnt using 2,6-DCIP as substrate at 10 uM measured for 1 min relative to control; format: cell-based
[3] = organism: Mus musculus; assay: Ratio of quinone reductase specific activity in mouse Hepa1c1c7 cells to quinone reductase specific activity in mouse mutant BpRc1 cells; format: cell-based
[4] = Cytotoxicity against mouse Hepa1c1c7 cells after 48 hrs by SRB assay; format: cell-based; conditions: Hepa-1c1c7, 48 h
[5] = organism: Mus musculus; assay: Induction of quinone reductase specific activity in mouse Hepa1c1c7 cells assessed as concentration required to double enzyme specific activity using 2,6-DCIP as substrate measured for 1 min; format: cell-based
[6] = Chemoprotective index, ratio of IC50 for mouse Hepa1c1c7 cells to CD for quinone reductase activity in mouse Hepa1c1c7 cells
[7] = Cytotoxicity against mouse mutant BpRc1 cells after 48 hrs by SRB assay; format: cell-based; conditions: BPrc1, 48 h
[8] = organism: Mus musculus; assay: Induction of quinone reductase activity in mouse mutant BpRc1 cells using 2,6-DCIP as substrate measured for 1 min; format: cell-based
[9] = Chemoprotective index, ratio of IC50 for mouse mutant BpRc1 cells to CD for quinone reductase activity in mouse mutant BpRc1 cells
[10] = organism: Mus musculus; assay: Ratio of induction of quinone reductase specific activity in mouse mutant BpRc1 cells to mouse Hepa1c1c7 cells; format: cell-based
[11] = target: T1, Nuclear factor erythroid 2-related factor 2 (Mus musculus) (UniProt Q60795); assay: Induction of Nrf2 nuclear translocation in mouse Hepa1c1c7 cells assessed as protein accumulation in nucleus at 20 uM by DAPI staining based immunofluorescence assay; format: cell-based
T1 sequence (whole entry): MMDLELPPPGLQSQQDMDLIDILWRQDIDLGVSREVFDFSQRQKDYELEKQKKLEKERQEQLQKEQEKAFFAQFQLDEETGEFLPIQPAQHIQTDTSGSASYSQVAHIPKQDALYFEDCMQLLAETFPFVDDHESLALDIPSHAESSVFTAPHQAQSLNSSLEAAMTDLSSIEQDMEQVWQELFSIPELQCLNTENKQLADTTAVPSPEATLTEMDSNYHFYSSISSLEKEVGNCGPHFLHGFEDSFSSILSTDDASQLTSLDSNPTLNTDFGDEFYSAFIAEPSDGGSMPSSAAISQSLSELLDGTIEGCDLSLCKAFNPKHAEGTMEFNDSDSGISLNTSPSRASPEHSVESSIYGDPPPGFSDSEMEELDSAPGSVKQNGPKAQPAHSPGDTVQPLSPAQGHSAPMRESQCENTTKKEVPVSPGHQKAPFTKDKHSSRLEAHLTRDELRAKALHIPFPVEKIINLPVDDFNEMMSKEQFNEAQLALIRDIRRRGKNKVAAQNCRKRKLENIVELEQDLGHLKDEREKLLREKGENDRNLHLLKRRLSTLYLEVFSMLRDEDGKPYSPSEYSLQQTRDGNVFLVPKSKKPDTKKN

[12] = system: MCF7; assay: Cytotoxicity against human MCF7 cells at 100 uM after 24 hrs by SRB assay; format: functional, cell-based
[13] = system: HT-29; assay: Cytotoxicity against human HT-29 cells at 100 uM after 24 hrs by SRB assay; format: functional, cell-based
[14] = system: Rattus norvegicus; assay: Induction of quinone reductase activity in cytosolic fraction of Wistar rat liver at 15 mg/kg/day, po for two weeks using 2,6-DCIP as substrate measured for 1 min relative to control; format: functional
[15] = system: Rattus norvegicus; assay: Induction of glutathione S-transferase activity in cytosolic fraction of Wistar rat liver at 15 mg/kg/day, po for two weeks using CDNB as substrate measured for 1 min relative to control; format: functional
[16] = system: Rattus norvegicus; assay: Induction of CYP450 activity in microsomal fraction of Wistar rat liver at 15 mg/kg/day, po for two weeks using 7-ethoxyresorufine as substrate measured for 5 mins relative to control; format: ADME, organism-based; conditions: in vivo
[17] = system: Rattus norvegicus; assay: Induction of quinone reductase activity in cytosolic fraction of Wistar rat colon at 15 mg/kg/day, po for two weeks using 2,6-DCIP as substrate at 10 uM measured for 1 min relative to control; format: functional
[18] = system: Rattus norvegicus; assay: Induction of glutathione S-transferase activity in cytosolic fraction of Wistar rat colon at 15 mg/kg/day, po for two weeks using CDNB as substrate measured for 1 min relative to control; format: functional
[19] = system: Rattus norvegicus; assay: Induction of CYP450 activity in microsomal fraction of Wistar rat colon at 15 mg/kg/day, po for two weeks using 7-ethoxyresorufine as substrate measured for 5 mins; format: ADME, organism-based; conditions: in vivo
[20] = system: Salmonella typhimurium; assay: Mutagenicity in Salmonella typhimurium TA98 assessed as revertant colonies at 0.5 to 40 ug/plate by Ames test in absence of mouse liver S9 fraction; format: toxicity, organism-based; conditions: salmonella enterica subsp. enterica serovar typhimurium
[21] = system: Salmonella typhimurium; assay: Mutagenicity in Salmonella typhimurium TA98 assessed as revertant colonies at 0.5 to 40 ug/plate by Ames test in presence of mouse liver S9 fraction; format: toxicity, organism-based; conditions: salmonella enterica subsp. enterica serovar typhimurium
[22] = system: Rattus norvegicus; assay: Toxicity in Wistar rat assessed as change in body weight at 15 mg/kg/day, po for two weeks; format: organism-based; conditions: in vivo
[23] = system: Rattus norvegicus; assay: Toxicity in Wistar rat assessed as change in behaviors at 15 mg/kg/day, po for two weeks; format: organism-based; conditions: in vivo
[24] = Toxicity in Wistar rat assessed as survival at 15 mg/kg/day, po for two weeks; format: organism-based; conditions: in vivo
[25] = system: Salmonella typhimurium; assay: Mutagenicity in Salmonella typhimurium TA98 assessed as revertant colonies at 6 to 500 ug/plate by Ames test in absence of mouse liver S9 fraction; format: toxicity, organism-based; conditions: salmonella enterica subsp. enterica serovar typhimurium
[26] = system: Salmonella typhimurium; assay: Mutagenicity in Salmonella typhimurium TA98 assessed as revertant colonies at 6 to 500 ug/plate by Ames test in presence of mouse liver S9 fraction; format: toxicity, organism-based; conditions: salmonella enterica subsp. enterica serovar typhimurium
[27] = system: Salmonella typhimurium; assay: Mutagenicity in Salmonella typhimurium TA98 assessed as revertant colonies at 0.5 to 30 ug/plate by Ames test in absence of mouse liver S9 fraction; format: toxicity, organism-based; conditions: salmonella enterica subsp. enterica serovar typhimurium
[28] = system: Salmonella typhimurium; assay: Mutagenicity in Salmonella typhimurium TA98 assessed as revertant colonies at 0.5 to 30 ug/plate by Ames test in presence of mouse liver S9 fraction; format: toxicity, organism-based; conditions: salmonella enterica subsp. enterica serovar typhimurium
[29] = system: Salmonella typhimurium; assay: Mutagenicity in Salmonella typhimurium TA98 assessed as revertant colonies at 0.02 to 2 ug/plate by Ames test in absence of mouse liver S9 fraction; format: toxicity, organism-based; conditions: salmonella enterica subsp. enterica serovar typhimurium
[30] = system: Salmonella typhimurium; assay: Mutagenicity in Salmonella typhimurium TA98 assessed as revertant colonies at 0.02 to 2 ug/plate by Ames test in presence of mouse liver S9 fraction; format: toxicity, organism-based; conditions: salmonella enterica subsp. enterica serovar typhimurium
[31] = system: Salmonella typhimurium; assay: Mutagenicity in Salmonella typhimurium TA98 assessed as revertant colonies at 5 to 400 ug/plate by Ames test in absence of mouse liver S9 fraction; format: toxicity, organism-based; conditions: salmonella enterica subsp. enterica serovar typhimurium
[32] = system: Salmonella typhimurium; assay: Mutagenicity in Salmonella typhimurium TA98 assessed as revertant colonies at 5 to 400 ug/plate by Ames test in presence of mouse liver S9 fraction; format: toxicity, organism-based; conditions: salmonella enterica subsp. enterica serovar typhimurium
[33] = system: Salmonella typhimurium; assay: Mutagenicity in Salmonella typhimurium TA98 assessed as revertant colonies at 2 to 167 ug/plate by Ames test in absence of mouse liver S9 fraction; format: toxicity, organism-based; conditions: salmonella enterica subsp. enterica serovar typhimurium
[34] = system: Salmonella typhimurium; assay: Mutagenicity in Salmonella typhimurium TA98 assessed as revertant colonies at 2 to 167 ug/plate by Ames test in presence of mouse liver S9 fraction; format: toxicity, organism-based; conditions: salmonella enterica subsp. enterica serovar typhimurium

Row | Compound | fold change (FC) [1] | fold change (FC) [2] | Ratio [3] | Activity [12] | Activity [13] | Activity [14] | Activity [22] | Activity [23] | survival at 2 weeks [24] [%] | other results
1 | O=C(/C=C/c1c(-c2ccccc2)no[n+]1[O-])c1ccccc1O | 3.01 | 1.82 | 1.65 | Active | Active | 80% | Non-toxic | Non-toxic | 100 | IC50 [4]: 40 µM; CD [5]: 8 µM; Ratio [6]: 5; IC50 [7]: 38 µM; CD [8]: 12 µM; Ratio [9]: 3.2; Ratio [10]: 1.5; Activity [11]: Active; Activity [15]: 110%; Activity [16]: 40%; Activity [17]: Active; Activity [18]: Active; Activity [19]: Active; Activity [20]: Non-toxic; Activity [21]: Non-toxic
2 | CC(C)(C)c1cc(O)ccc1O [E319] | – | – | – | – | – | – | – | – | – | IC50 [4]: 147 µM; CD [5]: 1 µM; Ratio [6]: 147; IC50 [7]: 60 µM; CD [8]: 6 µM; Ratio [9]: 10; Ratio [10]: 6; Activity [11]: Active
3 | O=C(/C=C/c1ccccc1)c1ccccc1O [2'-HYDROXYCHALCONE] | – | – | – | – | – | Active | Non-toxic | Non-toxic | 100 | Activity [15]: Active
4 | Cc1c(/C=C/C(=O)c2ccccc2O)no[n+]1[O-] | 1.49 | 1.18 | 1.26 | Active | Active | – | – | – | – | Activity [25]: Non-toxic; Activity [26]: Non-toxic
5 | O=C(/C=C/c1ccc2c(c1)no[n+]2[O-])c1ccccc1O | 1.39 | 1.18 | 1.18 | – | – | – | – | – | – | Activity [25]: Non-toxic; Activity [26]: Non-toxic
6 | O=C(/C=C/c1c(-c2ccccc2)no[n+]1[O-])c1ccc2ccccc2c1 | 2.49 | 1.06 | 2.35 | – | – | – | – | – | – | Activity [27]: Non-toxic; Activity [28]: Non-toxic
7 | Cc1c(/C=C/C(=O)c2ccc3ccccc3c2)no[n+]1[O-] | 1.49 | 0.99 | 1.5 | Active | Active | – | – | – | – | Activity [25]: Non-toxic; Activity [26]: Non-toxic
8 | COc1ccc(/C=C/C(=O)c2ccccc2)cc1 [4-METHOXY CHALCONE] | – | – | – | – | – | Active | Non-toxic | Non-toxic | 100 | –
9 | Cc1c(/C=C/C(=O)c2ccccc2)no[n+]1[O-] | 1.35 | 1.01 | 1.34 | Active | Active | – | – | – | – | Activity [29]: Non-toxic; Activity [30]: Non-toxic
10 | O=C(/C=C/c1c(-c2ccccc2)no[n+]1[O-])c1ccccc1 | 1.9 | 1.58 | 1.2 | Active | Active | 110% | Non-toxic | Non-toxic | 100 | IC50 [4]: 36 µM; CD [5]: 12 µM; Ratio [6]: 3; IC50 [7]: 38 µM; CD [8]: 13 µM; Ratio [9]: 2.9; Ratio [10]: 1.1; Activity [11]: Active; Activity [15]: 180%; Activity [16]: 60%; Activity [17]: 12%; Activity [18]: 13%; Activity [19]: Not Active; Activity [31]: Non-toxic; Activity [32]: Non-toxic
11 | O=c1cc(-c2ccc(Br)cc2)oc2ccccc12 | 4.45 | 1.49 | 2.99 | – | – | – | – | – | – | IC50 [4]: 85 µM; CD [5]: 0.79 µM; Ratio [6]: 107; IC50 [7]: 150 µM; CD [8]: 80 µM; Ratio [9]: 1.9; Ratio [10]: 100
12 | O=C(/C=C/c1ccc2c(c1)no[n+]2[O-])c1ccc2ccccc2c1 | 1.77 | 1.01 | 1.75 | Active | Active | – | – | – | – | –
13 | O=C(/C=C/c1ccc(Br)cc1)c1ccccc1O | – | – | – | – | – | 128% | Non-toxic | Non-toxic | 100 | –
14 | O=C(/C=C/c1ccc2c(c1)no[n+]2[O-])c1ccccc1 | 1.01 | 1.7 | 0.59 | Active | Active | – | – | – | – | Activity [33]: Toxic; Activity [34]: Non-toxic
